The structures appear in SMILES notation.

The target in data set [1] is T1, Adenosine receptor A1 (Homo sapiens) (UniProt P30542).
T1 sequence (whole entry): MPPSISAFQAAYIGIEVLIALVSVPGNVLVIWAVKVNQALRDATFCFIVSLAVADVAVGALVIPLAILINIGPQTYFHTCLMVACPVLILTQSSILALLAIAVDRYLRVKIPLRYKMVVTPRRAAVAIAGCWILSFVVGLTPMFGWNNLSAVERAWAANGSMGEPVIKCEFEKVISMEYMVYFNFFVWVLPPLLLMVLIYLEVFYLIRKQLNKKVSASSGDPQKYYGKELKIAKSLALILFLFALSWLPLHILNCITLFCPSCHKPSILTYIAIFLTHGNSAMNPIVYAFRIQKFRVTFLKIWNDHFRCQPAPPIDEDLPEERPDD
Put plainly: Displacement of [3H]DPCPX from recombinant human A1 receptor expressed in CHO cell membranes at 10 uM.

Data set [2] deals with Adenosine receptor A1 (Mus musculus) (UniProt Q60612). Put plainly: Displacement of [3H]DPCPX from mouse A1 receptor at 10 uM.
Sequence of Adenosine receptor A1 (Mus musculus) (Q60612 whole entry): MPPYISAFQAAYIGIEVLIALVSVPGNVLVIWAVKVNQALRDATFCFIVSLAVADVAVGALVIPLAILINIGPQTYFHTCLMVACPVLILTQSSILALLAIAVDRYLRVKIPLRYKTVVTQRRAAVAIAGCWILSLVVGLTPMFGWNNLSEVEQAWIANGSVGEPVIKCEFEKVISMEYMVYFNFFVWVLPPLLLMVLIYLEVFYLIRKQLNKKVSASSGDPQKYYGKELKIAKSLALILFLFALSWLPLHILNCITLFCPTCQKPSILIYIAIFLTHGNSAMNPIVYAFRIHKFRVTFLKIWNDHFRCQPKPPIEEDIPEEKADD
Data set [3] addresses T2, Adenosine receptor A2a (Homo sapiens, UniProt P29274). Kind of data set: Displacement of [3H]ZM241385 from human A2A receptor expressed in HEK293 cell membranes at 10 uM. The settings on record: HEK293 cell membranes expressing human A2A receptor, probe [3H]ZM241385.
For data set [4], the target named is Adenosine receptor A2a (Mus musculus, UniProt Q60613). Put plainly: Displacement of [3H]ZM241385 from mouse A2A receptor at 10 uM. Particulars: probe [3H]ZM241385.
Sequence of Adenosine receptor A2a (Mus musculus, UniProt Q60613) (Q60613 whole entry): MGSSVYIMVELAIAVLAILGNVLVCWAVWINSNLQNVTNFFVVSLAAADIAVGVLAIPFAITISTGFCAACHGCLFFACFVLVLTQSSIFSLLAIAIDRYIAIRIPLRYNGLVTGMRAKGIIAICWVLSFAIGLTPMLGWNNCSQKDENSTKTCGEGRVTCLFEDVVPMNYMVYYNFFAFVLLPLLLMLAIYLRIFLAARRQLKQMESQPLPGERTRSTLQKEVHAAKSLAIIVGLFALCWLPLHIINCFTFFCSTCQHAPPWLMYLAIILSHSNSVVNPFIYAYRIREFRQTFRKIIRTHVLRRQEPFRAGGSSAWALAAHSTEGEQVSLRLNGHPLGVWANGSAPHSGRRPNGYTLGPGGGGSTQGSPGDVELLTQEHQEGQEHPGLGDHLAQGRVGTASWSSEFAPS
Data set [5] deals with T3, Adenosine receptor A3 (Homo sapiens, UniProt P0DMS8).
T3 sequence (P0DMS8 whole entry): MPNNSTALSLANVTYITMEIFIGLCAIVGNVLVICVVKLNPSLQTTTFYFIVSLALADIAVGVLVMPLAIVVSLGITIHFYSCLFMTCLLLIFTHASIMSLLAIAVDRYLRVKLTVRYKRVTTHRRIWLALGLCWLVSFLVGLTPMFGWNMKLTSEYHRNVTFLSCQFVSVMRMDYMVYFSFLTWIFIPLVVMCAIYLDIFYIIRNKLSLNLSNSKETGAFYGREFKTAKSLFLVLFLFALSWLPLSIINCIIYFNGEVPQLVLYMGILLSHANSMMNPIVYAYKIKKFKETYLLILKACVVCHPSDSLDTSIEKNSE
Put plainly: Displacement of [125I]I-AB-MECA from recombinant human adenosine A3 receptor expressed in CHO cell membranes.

In data set [6] the target is Sodium-dependent noradrenaline transporter (Homo sapiens, UniProt P23975). Put plainly: Displacement of [3H]Nisoxetine from human NET expressed in HEK cells by radioligand binding assay. It is filed as cell-based.
Sequence of Sodium-dependent noradrenaline transporter (P23975 whole entry): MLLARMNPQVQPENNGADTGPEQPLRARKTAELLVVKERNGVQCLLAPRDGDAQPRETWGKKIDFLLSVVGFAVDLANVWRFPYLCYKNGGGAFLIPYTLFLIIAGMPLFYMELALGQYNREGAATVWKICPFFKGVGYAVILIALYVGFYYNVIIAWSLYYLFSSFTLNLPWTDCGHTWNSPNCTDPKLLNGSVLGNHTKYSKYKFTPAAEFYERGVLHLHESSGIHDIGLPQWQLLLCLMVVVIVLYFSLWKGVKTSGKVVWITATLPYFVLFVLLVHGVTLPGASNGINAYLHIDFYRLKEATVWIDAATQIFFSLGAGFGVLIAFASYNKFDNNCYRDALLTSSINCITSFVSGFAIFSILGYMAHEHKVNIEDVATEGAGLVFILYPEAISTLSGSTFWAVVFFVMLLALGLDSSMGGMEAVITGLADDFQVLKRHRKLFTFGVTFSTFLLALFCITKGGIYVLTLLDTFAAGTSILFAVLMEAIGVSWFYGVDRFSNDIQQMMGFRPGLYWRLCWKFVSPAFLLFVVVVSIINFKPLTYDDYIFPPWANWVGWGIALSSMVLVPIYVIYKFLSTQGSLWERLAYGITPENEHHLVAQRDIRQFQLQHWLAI
In data set [7] the target is Sigma intracellular receptor 2 (Homo sapiens, UniProt Q5BJF2). Kind of data set: Displacement of [3H]-DTG from human sigma 2 receptor.
Sequence of Sigma intracellular receptor 2 (Q5BJF2 whole entry): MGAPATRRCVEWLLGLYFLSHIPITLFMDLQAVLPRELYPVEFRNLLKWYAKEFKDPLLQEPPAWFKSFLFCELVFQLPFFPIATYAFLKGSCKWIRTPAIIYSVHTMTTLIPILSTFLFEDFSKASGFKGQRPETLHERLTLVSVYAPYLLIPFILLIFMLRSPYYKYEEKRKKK
The target in data set [8] is Adenosine receptor A3 (Mus musculus, UniProt Q61618). Put plainly: Displacement of [125I]I-AB-MECA from recombinant mouse adenosine A3 receptor expressed in HEK293 cell membranes.
Sequence of Adenosine receptor A3 (Mus musculus, UniProt Q61618) (Q61618 whole entry): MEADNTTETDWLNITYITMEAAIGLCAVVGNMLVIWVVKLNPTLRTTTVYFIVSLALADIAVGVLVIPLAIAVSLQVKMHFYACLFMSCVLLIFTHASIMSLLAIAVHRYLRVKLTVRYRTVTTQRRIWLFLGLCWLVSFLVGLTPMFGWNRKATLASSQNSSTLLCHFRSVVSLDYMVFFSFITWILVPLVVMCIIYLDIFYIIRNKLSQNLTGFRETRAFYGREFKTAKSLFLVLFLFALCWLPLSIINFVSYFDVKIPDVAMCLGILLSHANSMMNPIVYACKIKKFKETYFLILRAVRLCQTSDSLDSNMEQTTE
The species named for another data set is Homo sapiens. Kind of data set: Selectivity ratio of Ki for displacement of [125I]I-AB-MECA from recombinant mouse adenosine A3 receptor expressed in HEK293 cell membranes to Ki for displacement of [125I]I-AB-MECA from recombinant human adenosine A3 receptor.
The next data set concerns the target T4, Adenosine receptor A1 (Homo sapiens, UniProt P30542).
T4 sequence (P30542 whole entry): T1 sequence (whole entry)
Put plainly: Displacement of [3H]DPCPX from recombinant human A1 receptor expressed in CHO cell membranes.

For data set [9], the target named is T2, Adenosine receptor A2a. Kind of data set: Displacement of [3H]ZM241385 from human A2A receptor expressed in HEK293 cell membranes.
In data set [10] the target is T3, Adenosine receptor A3. Put plainly: Antagonist activity at human A3AR expressed in CHO cells assessed as suppression of NECA-induced reduction in cAMP accumulation. It is filed as functional, cell-based.
Data set [11] concerns the target Alpha-2C adrenergic receptor (Homo sapiens, UniProt P18825). Kind of data set: Displacement of [3H]Rauwolscine from human alpha 2C adrenergic receptor expressed in MDCK cells by radioligand binding assay. It is filed as cell-based.
A short description of data set [12]: Displacement of [3H]DPCPX from pig A1 receptor. Also on record: species or system Sus scrofa.
The target of another data set is D(1A) dopamine receptor (Homo sapiens, UniProt P21728). Kind of data set: Displacement of [3H]SCH23390 from human dopamine D1 receptor expressed in HEK293T cell membranes by radioligand binding assay.
Sequence of D(1A) dopamine receptor (P21728 whole entry): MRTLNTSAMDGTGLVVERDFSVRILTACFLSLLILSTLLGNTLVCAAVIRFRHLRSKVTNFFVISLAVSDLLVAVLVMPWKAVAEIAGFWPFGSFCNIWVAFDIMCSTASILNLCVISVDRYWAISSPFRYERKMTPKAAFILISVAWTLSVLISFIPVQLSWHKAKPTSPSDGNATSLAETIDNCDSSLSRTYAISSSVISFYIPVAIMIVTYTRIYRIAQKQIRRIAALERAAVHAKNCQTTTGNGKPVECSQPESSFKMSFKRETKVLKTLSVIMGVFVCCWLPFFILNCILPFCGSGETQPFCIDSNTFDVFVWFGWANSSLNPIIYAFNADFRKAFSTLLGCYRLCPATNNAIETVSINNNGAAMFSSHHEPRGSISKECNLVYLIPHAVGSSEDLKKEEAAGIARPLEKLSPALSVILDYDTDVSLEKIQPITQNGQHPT
In data set [13] the target is Sigma non-opioid intracellular receptor 1 (Cavia porcellus, UniProt Q60492). Kind of data set: Displacement of [3H]-(+)-pentazocine from sigma-1 receptor in guinea pig by radioligand binding assay.
Sequence of Sigma non-opioid intracellular receptor 1 (Q60492 whole entry): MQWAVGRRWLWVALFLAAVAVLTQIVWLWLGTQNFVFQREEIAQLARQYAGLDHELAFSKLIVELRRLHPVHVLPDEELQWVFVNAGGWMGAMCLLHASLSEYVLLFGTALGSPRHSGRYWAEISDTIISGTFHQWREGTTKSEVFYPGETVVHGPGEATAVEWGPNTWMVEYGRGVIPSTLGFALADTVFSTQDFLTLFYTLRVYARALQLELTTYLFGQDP

T2 sequence (P29274 whole entry): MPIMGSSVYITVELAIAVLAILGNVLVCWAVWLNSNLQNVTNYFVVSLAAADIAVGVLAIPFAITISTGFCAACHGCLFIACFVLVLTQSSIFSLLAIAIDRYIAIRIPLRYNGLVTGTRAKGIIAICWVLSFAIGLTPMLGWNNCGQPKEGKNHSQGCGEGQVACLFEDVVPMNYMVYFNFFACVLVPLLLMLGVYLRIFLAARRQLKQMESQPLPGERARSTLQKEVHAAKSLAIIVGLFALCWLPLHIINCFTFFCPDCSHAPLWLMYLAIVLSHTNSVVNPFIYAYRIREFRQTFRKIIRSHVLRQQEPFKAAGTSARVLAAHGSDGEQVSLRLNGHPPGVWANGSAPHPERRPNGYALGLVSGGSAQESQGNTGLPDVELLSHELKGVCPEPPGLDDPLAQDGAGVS
Sequence of Alpha-2C adrenergic receptor (P18825 whole entry): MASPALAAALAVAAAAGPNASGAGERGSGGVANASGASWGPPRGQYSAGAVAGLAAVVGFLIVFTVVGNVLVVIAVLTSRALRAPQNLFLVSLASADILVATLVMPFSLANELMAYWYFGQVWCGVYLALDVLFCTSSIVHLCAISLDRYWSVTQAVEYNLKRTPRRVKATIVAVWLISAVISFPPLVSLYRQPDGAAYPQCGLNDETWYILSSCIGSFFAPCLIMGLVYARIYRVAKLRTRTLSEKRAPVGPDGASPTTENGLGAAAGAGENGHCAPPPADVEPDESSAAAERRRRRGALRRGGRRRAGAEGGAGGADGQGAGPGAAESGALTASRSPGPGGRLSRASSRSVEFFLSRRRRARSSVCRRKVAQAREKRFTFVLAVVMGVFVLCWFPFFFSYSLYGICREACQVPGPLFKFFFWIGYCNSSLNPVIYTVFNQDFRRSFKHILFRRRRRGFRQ

`C[C@@]12C[C@@H]1[C@@H](n1cnc3c(NCCc4ccccc4)nc(C#Cc4ccccc4)nc31)[C@H](O)[C@@H]2O`: the inhibition in data set [1] amounted to 30%; in data set [2] it was 39%. Further, the values for the inhibition at 10 µM at Adenosine receptor A2a [3] and on Adenosine receptor A2a [4] were 22% and 13%, respectively. Further, the Ki came to 0.02 µM at Adenosine receptor A3 [5], 2.8 µM in data set [6], 1.3 µM in data set [7] and 0.48 µM at Adenosine receptor A3 [8]. Also, the Ratio Ki in the data set listed under Homo sapiens is 24.
In the case of `Clc1ccc(C#Cc2nc(NC3CCCC3)c3nc[nH]c3n2)s1`, the Ki on Adenosine receptor A1 came out at 1.12 µM; on Adenosine receptor A2a [9], 1.34 µM; on Adenosine receptor A3 [5], 0.0174 µM; in data set [11], 1.49 µM. In addition, the EC50 at Adenosine receptor A3 [10] was 0.276 µM.
On to `OC[C@H]1O[C@@H](n2cnc3c(N[C@@H]4CCOC4)ncnc32)[C@H](O)[C@@H]1O` [TECADENOSON], for which the inhibitory constant (Ki) is 0.0065 µM in [12] and 2.32 µM on Adenosine receptor A2a [9].
With `CCNc1nc(C#Cc2ccc(Cl)s2)nc2[nH]cnc12`, the inhibition in [1] worked out at 32%. The same compound returned an inhibition at 10 µM on Adenosine receptor A2a [3] of 18%. The Ki was 0.0331 µM on Adenosine receptor A3 [5], 5.11 µM on D(1A) dopamine receptor and 1.16 µM in data set [13].

Values taken from ChEMBL document CHEMBL4368860, “Structure activity relationship of 2-arylalkynyl-adenine derivatives as human A3 adenosine receptor antagonists” (Medchemcomm, 2018).
